This note sets out measurements from article PMC9516332 (Frontiers in Oncology, 2022).

Common to all, as to assay: Kinase panel profiling at 1 µmol/L (MSA or IMAP), percentage inhibition
What all share (assay type): biochemical

Assay [1] concerns the target panel of 255 wild-type kinases (Homo sapiens, UniProt O75676). Particulars: MSK2; 1 µmol/L single concentration; read-out: %-inhibition, MSK2.
Assay [2] has as its target panel of 255 wild-type kinases (Homo sapiens, UniProt P22694). Conditions: kinase PKACβ; 1 µmol/L single concentration; read-out: %-inhibition at 1 µmol/L, PKACβ.
Assay [3] has as its target panel of 255 wild-type kinases (Homo sapiens, UniProt P24723). Conditions: kinase PKCη; 1 µmol/L single concentration; read-out: %-inhibition at 1 µmol/L, PKCη.
For assay [4], the target named is panel of 255 wild-type kinases (Homo sapiens, UniProt Q04759). Particulars: kinase PKCθ; 1 µmol/L single concentration; read-out: %-inhibition at 1 µmol/L, PKCθ.
For assay [5], the target named is T1, panel of 255 wild-type kinases (Homo sapiens, UniProt Q13043).
T1 sequence (Q13043 1-487): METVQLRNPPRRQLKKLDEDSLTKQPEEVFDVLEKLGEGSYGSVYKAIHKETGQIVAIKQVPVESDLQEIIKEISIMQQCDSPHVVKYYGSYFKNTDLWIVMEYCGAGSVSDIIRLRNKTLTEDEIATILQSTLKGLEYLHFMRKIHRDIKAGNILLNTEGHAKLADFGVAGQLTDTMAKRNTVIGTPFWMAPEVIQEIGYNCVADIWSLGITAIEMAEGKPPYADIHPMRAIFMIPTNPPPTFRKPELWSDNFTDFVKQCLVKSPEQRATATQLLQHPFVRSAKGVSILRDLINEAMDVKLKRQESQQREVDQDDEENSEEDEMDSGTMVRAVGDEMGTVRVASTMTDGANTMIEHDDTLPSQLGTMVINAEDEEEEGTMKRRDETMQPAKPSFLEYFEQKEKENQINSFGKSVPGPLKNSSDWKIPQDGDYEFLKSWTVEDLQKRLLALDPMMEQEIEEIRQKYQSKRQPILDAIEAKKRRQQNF
Conditions: MST1; 1 µmol/L single concentration; read-out: %-inhibition, MST1.

Assay [6] has as its target panel of 255 wild-type kinases (Homo sapiens, UniProt Q8IY84). Particulars: NIM1K; 1 µmol/L single concentration; read-out: %-inhibition, NIM1K.
Assay [7] has as its target panel of 255 wild-type kinases (Homo sapiens, UniProt Q9H2X6). Conditions: kinase HIPK2; 1 µmol/L single concentration; read-out: %-inhibition at 1 µmol/L, HIPK2.
In assay [8] the target is T2, panel of 255 wild-type kinases (Homo sapiens, UniProt Q9NWZ3).
T2 sequence (Q9NWZ3 1-460): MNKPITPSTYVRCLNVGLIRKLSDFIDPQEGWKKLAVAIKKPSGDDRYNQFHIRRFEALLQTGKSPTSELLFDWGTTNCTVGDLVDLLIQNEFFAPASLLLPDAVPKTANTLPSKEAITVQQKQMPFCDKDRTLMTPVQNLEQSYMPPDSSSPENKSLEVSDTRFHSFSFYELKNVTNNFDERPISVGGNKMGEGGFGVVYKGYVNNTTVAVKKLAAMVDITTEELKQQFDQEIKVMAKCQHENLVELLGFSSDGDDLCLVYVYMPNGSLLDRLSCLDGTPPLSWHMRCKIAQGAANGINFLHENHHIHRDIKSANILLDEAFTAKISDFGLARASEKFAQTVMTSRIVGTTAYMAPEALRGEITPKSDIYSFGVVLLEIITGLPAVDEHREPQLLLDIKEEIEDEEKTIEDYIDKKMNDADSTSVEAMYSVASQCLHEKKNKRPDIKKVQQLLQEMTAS
Particulars: kinase IRAK4; 1 µmol/L single concentration; read-out: %-inhibition at 1 µmol/L, IRAK4.

Assay [9] deals with panel of 255 wild-type kinases (Homo sapiens, UniProt Q9P1W9). Particulars: kinase PIM2; 1 µmol/L single concentration; read-out: %-inhibition at 1 µmol/L, PIM2.
Assay [10] has as its target T3, panel of 255 wild-type kinases (Homo sapiens, UniProt Q9UF33).
T3 sequence (Q9UF33 23-1036): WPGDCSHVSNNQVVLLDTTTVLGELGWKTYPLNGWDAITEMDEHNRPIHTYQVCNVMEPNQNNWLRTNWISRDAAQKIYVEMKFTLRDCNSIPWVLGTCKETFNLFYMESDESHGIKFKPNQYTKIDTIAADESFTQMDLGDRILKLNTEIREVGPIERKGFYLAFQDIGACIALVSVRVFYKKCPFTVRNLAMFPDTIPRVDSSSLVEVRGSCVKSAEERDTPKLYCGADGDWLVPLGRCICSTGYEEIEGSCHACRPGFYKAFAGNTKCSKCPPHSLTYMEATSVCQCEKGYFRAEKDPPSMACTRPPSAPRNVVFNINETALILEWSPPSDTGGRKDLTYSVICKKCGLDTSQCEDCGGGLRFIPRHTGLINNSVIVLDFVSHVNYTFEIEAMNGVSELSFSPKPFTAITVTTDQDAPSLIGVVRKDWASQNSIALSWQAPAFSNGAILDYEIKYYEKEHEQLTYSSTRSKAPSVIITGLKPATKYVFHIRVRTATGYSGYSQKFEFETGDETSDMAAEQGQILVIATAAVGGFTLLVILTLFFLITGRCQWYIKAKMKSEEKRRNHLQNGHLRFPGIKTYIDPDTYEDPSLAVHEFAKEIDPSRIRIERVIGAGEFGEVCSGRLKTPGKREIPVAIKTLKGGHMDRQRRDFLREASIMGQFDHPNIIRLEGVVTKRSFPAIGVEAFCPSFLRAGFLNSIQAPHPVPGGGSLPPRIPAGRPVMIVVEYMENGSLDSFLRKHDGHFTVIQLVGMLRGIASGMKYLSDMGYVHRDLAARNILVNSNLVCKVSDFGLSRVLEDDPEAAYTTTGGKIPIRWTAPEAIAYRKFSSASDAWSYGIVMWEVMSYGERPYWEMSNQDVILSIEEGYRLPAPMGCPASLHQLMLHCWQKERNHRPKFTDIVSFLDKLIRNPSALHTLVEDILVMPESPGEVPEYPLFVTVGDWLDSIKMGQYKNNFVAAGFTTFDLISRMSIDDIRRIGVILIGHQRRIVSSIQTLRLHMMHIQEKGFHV
Conditions: kinase EPHA6; 1 µmol/L single concentration; read-out: %-inhibition at 1 µmol/L, EPHA6.

The target of assay [11] is panel of 255 wild-type kinases (Homo sapiens, UniProt Q9Y5S2). Conditions: MRCKβ; 1 µmol/L single concentration; read-out: %-inhibition, MRCKβ.

Each structure is given as a SMILES string.

On to `Cn1cnc2c(F)c(Nc3ccc(Br)cc3F)c(C(=O)NOCCO)cc21` [binimetinib], for which the inhibition at 1 µM is -3.65% in [1]; -0.56% in [2]; 6% in assay [3]; -2.27% in assay [4]; -6.46% in assay [5]; -2.23% in assay [6]. Moreover, the inhibition at 1 µM was -4.27% in assay [7]; 1.26% in assay [8]; -6.4% in assay [9]; 2.34% in assay [10]; 1.58% in assay [11].
For `COc1ccc(CN2C3CC2CN(c2ccc(-c4cc(OCC(C)(C)O)cn5ncc(C#N)c45)cn2)C3)cn1` [selpercatinib], the inhibition at 1 µM in [1] was 5.66%; in [2], -4.64%; in [3] it was 4.42%; in [4], -2.29%; in assay [5] it was -2.33%; in assay [6], -2%. Moreover, the inhibition at 1 µM in [7] was 0.223%; in [8], 1.9%; in assay [9] it was -6%; in [10], 98%; in [11] it was -3.65%.
As to `CCN1C(=O)N(c2c(F)c(OC)cc(OC)c2F)Cc2cnc3[nH]c(CN4CCOCC4)cc3c21` [pemigatinib], the inhibition at 1 µM was -3.61% in assay [1]; -7% in assay [2]; 5% in [3]; -2.16% in assay [4]; 6% in [5]; -1.5% in assay [6]. For the same compound, the inhibition at 1 µM is 2.55% in [7]; 0.22% in [8]; -6% in assay [9]; -3% in assay [10]; -4.4% in assay [11].
In the case of `CN1CCN(c2ccc(C(=O)Nc3n[nH]c4ccc(Cc5cc(F)cc(F)c5)cc34)c(NC3CCOCC3)c2)CC1` [entrectinib], the inhibition at 1 µM in assay [1] is 2.7%; in [2], -21%; in assay [3] it was 19%; in [4], 10%; in assay [5] it was 92%; in assay [6] it was -1.5%. Moreover, the inhibition at 1 µM is 8% in assay [7]; 8% in assay [8]; -7.56% in [9]; 44% in [10]; -7% in assay [11].
In the case of `CO[C@]1(C(=O)N[C@@H](C)c2ccc(-n3cc(F)cn3)nc2)CC[C@H](c2nc(C)cc(Nc3cc(C)[nH]n3)n2)CC1` [pralsetinib], the inhibition at 1 µM in assay [1] is 3.18%; in [2], 20%; in assay [3] it was -3.21%; in [4], -0.598%; in [5] it was 19%; in assay [6], 0.843%. Further, the inhibition at 1 µM in assay [7] was 11%; in assay [8], -0.786%; in assay [9] it was -4%; in [10], 87%; in assay [11], 1.9%.
As to `C[C@H]1Oc2cc(cnc2N)-c2c(nn(C)c2C#N)CN(C)C(=O)c2ccc(F)cc21` [lorlatinib], the inhibition at 1 µM in [1] is -3.24%; in [2], -18%; in [3], 0.817%; in assay [4], 3%; in assay [5], 28%; in assay [6], 1.32%. The inhibition at 1 µM is -2% in [7]; -1.47% in assay [8]; -3.36% in assay [9]; 76% in [10]; 2.78% in assay [11].
With `CCn1c(=O)c(-c2cc(NC(=O)Nc3ccccc3)c(F)cc2Br)cc2cnc(NC)cc21` [ripretinib], the inhibition at 1 µM in assay [1] is 3%; in assay [2] it was -3.65%; in [3], 0.077%; in assay [4], -3%; in [5], 3%; in assay [6], 0.056%. The inhibition at 1 µM in assay [7] is 0.0334%; in assay [8] it was -3.46%; in assay [9], -3%; in assay [10], 99%; in assay [11], -1.41%.
Regarding `Cc1nc(NC(=O)N2CCC[C@H]2C(N)=O)sc1-c1ccnc(C(C)(C)C(F)(F)F)c1` [alpelisib], the inhibition at 1 µM in assay [1] is 0.0558%; in [2] it was -20%; in assay [3], 1.42%; in [4] it was -0.212%; in assay [5], 5%; in [6], -1.81%. Also, the inhibition at 1 µM is 3.33% in assay [7]; -3.77% in assay [8]; -6.4% in assay [9]; 5.35% in assay [10]; -7% in [11].
In the case of `FC(F)(F)c1ccc(CNc2ccc(Cc3c[nH]c4ncc(Cl)cc34)cn2)cn1` [pexidartinib], the inhibition at 1 µM was 4.45% in assay [1]; 4% in assay [2]; 0.77% in assay [3]; 3.27% in assay [4]; 25% in [5]; -1.06% in [6]. The inhibition at 1 µM is 4.6% in [7]; 37% in assay [8]; -2.72% in assay [9]; 18% in assay [10]; 2.43% in [11].
